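Following 48 hours of exposure in 96-well plates, responses at five concentrations were used to interpolate endpoints linearly. GI50 is the concentration that inhibits growth by half. TGI: total growth inhibition.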
Experiments:
Experiment in all cases: NCI anticancer screen, dose series, 48 h
SNB-75 CNS = test system: SNB-75 CNS
MOLT-4 leukemia = test system: MOLT-4 leukemia
SN12C renal = test system: SN12C renal
MCF7 breast = test system: MCF7 breast
UO-31 renal = test system: UO-31 renal
NCI-H522 lung = test system: NCI-H522 lung
PC-3 prostate = test system: PC-3 prostate
HS 578T breast = test system: HS 578T breast
NCI-H226 lung = test system: NCI-H226 lung
CCRF-CEM leukemia = test system: CCRF-CEM leukemia
SK-OV-3 ovarian = test system: SK-OV-3 ovarian
COLO 205 colon = test system: COLO 205 colon
TK-10 renal = test system: TK-10 renal
K-562 leukemia = test system: K-562 leukemia

## O=c1c(Sc2ncccn2)c(Sc2ncccn2)cnn1CCl
SNB-75 CNS
  TGI: 34.6 µM
MOLT-4 leukemia
  TGI: 10.6 µM
SN12C renal
  TGI: 9.37 µM
MCF7 breast
  TGI: 11.6 µM
UO-31 renal
  TGI: 3.45 µM
NCI-H522 lung
  TGI: 2.37 µM
PC-3 prostate
  TGI: 8.79 µM
HS 578T breast
  TGI: 37 µM
NCI-H226 lung
  TGI: > 76.8 µM
CCRF-CEM leukemia
  TGI: 7.68 µM
SK-OV-3 ovarian
  TGI: 23.2 µM
COLO 205 colon
  TGI: 4.79 µM
TK-10 renal
  TGI: 11.4 µM
K-562 leukemia
  TGI: 20.5 µM

## CCc1n[nH]c(=S)n1/N=C\c1ccc(-c2ccccc2[N+](=O)[O-])o1
SNB-75 CNS
  TGI: > 100 µM
MOLT-4 leukemia
  TGI: 57.8 µM
SN12C renal
  TGI: > 100 µM
MCF7 breast
  TGI: > 100 µM
UO-31 renal
  TGI: > 100 µM
NCI-H522 lung
  TGI: > 100 µM
PC-3 prostate
  TGI: > 100 µM
HS 578T breast
  TGI: > 100 µM
NCI-H226 lung
  TGI: 54.1 µM
CCRF-CEM leukemia
  TGI: > 100 µM
SK-OV-3 ovarian
  TGI: > 100 µM
COLO 205 colon
  TGI: > 100 µM
TK-10 renal
  TGI: > 100 µM
K-562 leukemia
  TGI: > 100 µM

## COc1nc(C)nc2c1ncn2Cc1ccccc1
SNB-75 CNS
  TGI: > 100 µM
SN12C renal
  TGI: > 100 µM
MCF7 breast
  TGI: > 100 µM
NCI-H522 lung
  TGI: > 100 µM
PC-3 prostate
  TGI: > 100 µM
HS 578T breast
  TGI: > 100 µM
NCI-H226 lung
  TGI: > 100 µM
CCRF-CEM leukemia
  TGI: > 100 µM
SK-OV-3 ovarian
  TGI: > 100 µM
COLO 205 colon
  TGI: > 100 µM
TK-10 renal
  TGI: > 100 µM
K-562 leukemia
  TGI: > 100 µM

## CCCc1cc(-c2ccc(-c3cc(CCC)c(C=O)[nH]3)s2)[nH]c1C=O
SNB-75 CNS
  TGI: > 100 µM
MOLT-4 leukemia
  TGI: > 100 µM
SN12C renal
  TGI: > 100 µM
MCF7 breast
  TGI: > 100 µM
UO-31 renal
  TGI: > 100 µM
NCI-H522 lung
  TGI: 17.9 µM
PC-3 prostate
  TGI: > 100 µM
HS 578T breast
  TGI: > 100 µM
NCI-H226 lung
  TGI: > 100 µM
CCRF-CEM leukemia
  TGI: > 100 µM
SK-OV-3 ovarian
  TGI: > 100 µM
COLO 205 colon
  TGI: > 100 µM
TK-10 renal
  TGI: > 100 µM
K-562 leukemia
  TGI: > 100 µM

## COc1cc2c(cc1OCCCCN1CCN(CCCCOc3cc4c(cc3OC)C(=O)N3CCC[C@H]3C=N4)CC1)N=C[C@@H]1CCCN1C2=O
SN12C renal
  TGI: 1.1 µM
MCF7 breast
  TGI: 45 µM
UO-31 renal
  TGI: > 100 µM
NCI-H522 lung
  TGI: 1.49 µM
PC-3 prostate
  TGI: 3.12 µM
HS 578T breast
  TGI: > 100 µM
NCI-H226 lung
  TGI: 0.0891 µM
CCRF-CEM leukemia
  GI50: < 0.01 µM
  TGI: 41.6 µM
SK-OV-3 ovarian
  TGI: > 100 µM
COLO 205 colon
  TGI: 0.0354 µM
TK-10 renal
  TGI: 0.263 µM
K-562 leukemia
  TGI: > 11.3 µM

## CC(Cc1ccc2c(c1)OCO2)N(C)C(=O)C1=CCN(C)CC1 (centres undefined)
SNB-75 CNS
  TGI: > 100 µM
MOLT-4 leukemia
  TGI: > 100 µM
SN12C renal
  TGI: > 100 µM
MCF7 breast
  TGI: > 100 µM
UO-31 renal
  TGI: > 100 µM
NCI-H522 lung
  TGI: > 100 µM
PC-3 prostate
  TGI: > 100 µM
HS 578T breast
  TGI: > 100 µM
NCI-H226 lung
  TGI: > 100 µM
CCRF-CEM leukemia
  TGI: > 100 µM
SK-OV-3 ovarian
  TGI: > 100 µM
COLO 205 colon
  TGI: > 100 µM
TK-10 renal
  TGI: > 100 µM
K-562 leukemia
  TGI: > 100 µM

## CCOP(=O)(OCC)C(=C1C=C(C(C)(C)C)C(=O)C(C(C)(C)C)=C1)P(=O)(OCC)OCC
SNB-75 CNS
  TGI: > 10 µM
MOLT-4 leukemia
  TGI: > 10 µM
SN12C renal
  TGI: > 10 µM
MCF7 breast
  TGI: > 10 µM
UO-31 renal
  TGI: > 10 µM
NCI-H522 lung
  TGI: 4.29 µM
PC-3 prostate
  TGI: > 10 µM
HS 578T breast
  TGI: > 10 µM
NCI-H226 lung
  TGI: > 10 µM
CCRF-CEM leukemia
  TGI: > 6.32 µM
SK-OV-3 ovarian
  TGI: > 10 µM
COLO 205 colon
  TGI: 4.2 µM
TK-10 renal
  TGI: > 7.39 µM
K-562 leukemia
  TGI: > 7.45 µM

## C[N+]12CCCCC1C(CN1C(=O)c3ccccc3C1=O)CCC2 (centres undefined)
SNB-75 CNS
  TGI: > 100 µM
MOLT-4 leukemia
  TGI: > 100 µM
SN12C renal
  TGI: > 100 µM
MCF7 breast
  TGI: > 100 µM
UO-31 renal
  TGI: > 100 µM
NCI-H522 lung
  TGI: > 100 µM
PC-3 prostate
  TGI: > 100 µM
HS 578T breast
  TGI: > 100 µM
NCI-H226 lung
  TGI: > 100 µM
CCRF-CEM leukemia
  TGI: > 100 µM
SK-OV-3 ovarian
  TGI: > 100 µM
COLO 205 colon
  TGI: > 100 µM
TK-10 renal
  TGI: > 100 µM
K-562 leukemia
  TGI: > 100 µM
